Reference: PMC8887546, “Design and Synthesis of Brain Penetrant Glycopeptide Analogues of PACAP With Neuroprotective Potential for Traumatic Brain Injury and Parkinsonism” (Frontiers in drug discovery, 2022)

Experiments:
Assay type in all cases: cell-based
human PAC1 receptor = target: T1, human PAC1 receptor (Homo sapiens, UniProt P41586); assay: cAMP stimulation in CHO cells expressing PAC1; conditions: for Emax: CHO
T1 construct: expressed in transfected cells; host or cells: CHO cells (G418 selection)
T1 sequence (P41586 21-468): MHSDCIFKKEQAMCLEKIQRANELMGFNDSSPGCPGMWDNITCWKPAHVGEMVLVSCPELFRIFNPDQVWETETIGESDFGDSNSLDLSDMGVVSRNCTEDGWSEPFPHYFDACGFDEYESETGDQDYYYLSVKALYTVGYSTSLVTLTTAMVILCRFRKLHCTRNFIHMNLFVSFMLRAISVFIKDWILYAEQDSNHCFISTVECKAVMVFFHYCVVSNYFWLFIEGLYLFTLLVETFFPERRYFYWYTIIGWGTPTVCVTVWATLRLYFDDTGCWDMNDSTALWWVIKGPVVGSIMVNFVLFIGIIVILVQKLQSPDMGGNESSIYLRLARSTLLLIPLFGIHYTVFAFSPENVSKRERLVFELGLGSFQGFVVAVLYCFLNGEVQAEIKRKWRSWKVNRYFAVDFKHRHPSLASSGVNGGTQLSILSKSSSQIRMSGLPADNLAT
Method: (§1) Briefly, human PAC1, VPAC1, and VPAC2 receptors expressed in CHO cells were used for all experiments. Cells were grown in 50:50 DMEM-F12 medium with 10% heat-inactivated fetal bovine serum, 1X penicillin-streptomycin supplement, and 500 μg/ml G418 (neomycin) to maintain selection (all from ThermoFisher) at 37°C with 5% CO2 atmosphere. For the cAMP assay, cells were seeded at 20,000 cells/well in a 96 well plate, recovered overnight, then serum starved for 4 h. The cells were then incubated with 500 μM IBMX for 20 min, followed by agonist concentration curves in 500 μM IBMX media for 10 min. The reaction was terminated, boiled, then collected, followed by competition with 7 μg of bovine protein kinase A (Sigma-Aldrich) and ∼1 pmol of ^3H-cAMP (PerkinElmer). The assay was incubated at room temp for 1 h, then collected onto GF/B filter plates and the data read using a MicroBeta2 scintillation counter (PerkinElmer).

human VPAC1 receptor = target: T2, human VPAC1 receptor (Homo sapiens, UniProt P32241); assay: cAMP stimulation in CHO cells expressing VPAC1; conditions: for Emax: CHO, read-out: VPAC1 Emax; for Receptor selectivity ratio VPAC1/PAC1: ratio of cAMP EC50 values; for EC50: read-out: VPAC1 EC50
T2 construct: expressed in transfected cells; host or cells: CHO cells (G418 selection)
T2 sequence (P32241 31-457): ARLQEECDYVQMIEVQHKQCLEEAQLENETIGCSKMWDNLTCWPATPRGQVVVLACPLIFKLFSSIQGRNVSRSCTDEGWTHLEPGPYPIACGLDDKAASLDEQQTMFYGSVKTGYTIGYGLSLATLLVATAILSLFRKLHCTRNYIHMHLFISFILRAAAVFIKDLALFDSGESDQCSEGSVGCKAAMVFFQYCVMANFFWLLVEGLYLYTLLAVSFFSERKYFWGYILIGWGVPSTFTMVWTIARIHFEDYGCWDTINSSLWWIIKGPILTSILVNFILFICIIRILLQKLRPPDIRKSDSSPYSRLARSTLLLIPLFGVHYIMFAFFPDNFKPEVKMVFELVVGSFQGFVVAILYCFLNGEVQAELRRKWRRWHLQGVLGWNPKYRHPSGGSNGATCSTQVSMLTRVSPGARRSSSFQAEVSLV

human VPAC2 receptor = target: T3, human VPAC2 receptor (Homo sapiens, UniProt P41587); assay: cAMP stimulation in CHO cells expressing VPAC2; conditions: for Emax: CHO; for Receptor selectivity ratio VPAC2/PAC1 / Receptor selectivity ratio VPAC2/VPAC1: ratio of cAMP EC50 values
T3 construct: expressed in transfected cells; host or cells: CHO cells (G418 selection)
T3 sequence (P41587 24-438): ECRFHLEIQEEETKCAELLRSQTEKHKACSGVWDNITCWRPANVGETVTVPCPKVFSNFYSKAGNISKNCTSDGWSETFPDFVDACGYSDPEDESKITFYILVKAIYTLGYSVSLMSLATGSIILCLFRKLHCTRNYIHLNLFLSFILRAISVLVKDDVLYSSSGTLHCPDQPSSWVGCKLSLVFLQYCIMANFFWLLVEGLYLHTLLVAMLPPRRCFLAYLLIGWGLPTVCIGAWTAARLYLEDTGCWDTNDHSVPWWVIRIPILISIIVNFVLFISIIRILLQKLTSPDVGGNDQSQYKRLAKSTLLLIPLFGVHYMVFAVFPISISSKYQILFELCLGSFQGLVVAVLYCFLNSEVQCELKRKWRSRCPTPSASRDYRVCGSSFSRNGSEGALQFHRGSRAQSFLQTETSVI
Method: as §1

Row | EC50 (human PAC1 receptor) [nM] | Emax (human PAC1 receptor) [%] | Emax (human VPAC1 receptor) [%] | Receptor selectivity ratio VPAC1/PAC1 (human VPAC1 receptor) | EC50 (human VPAC1 receptor) [nM] | EC50 (human VPAC2 receptor) [nM] | Emax (human VPAC2 receptor) [%] | Receptor selectivity ratio VPAC2/PAC1 (human VPAC2 receptor) | Receptor selectivity ratio VPAC2/VPAC1 (human VPAC2 receptor) | Selectivity for PAC1 over VPAC1 (human PAC1 receptor; from cAMP EC50 values) [fold] | Selectivity for PAC1 over VPAC2 (human PAC1 receptor; from cAMP EC50 values) [fold] | SMILES
1 | – | 89 | 107 | – | – | – | 112 | – | – | – | – | CCC[C@H](NC(=O)[C@H](CCC(N)=O)NC(=O)[C@H](CCCCN)NC(=O)[C@H](CCCNC(=N)N)NC(=O)[C@H](Cc1ccc(O)cc1)NC(=O)[C@H](CCCNC(=N)N)NC(=O)[C@H](CO)NC(=O)[C@H](Cc1ccc(O)cc1)NC(=O)[C@H](CO)NC(=O)[C@H](CC(=O)O)NC(=O)[C@@H](NC(=O)[C@H](Cc1ccccc1)NC(=O)[C@@H](NC(=O)[C@H](C)NC(=O)[C@H](CC(=O)O)NC(=O)[C@@H](CO)NC(=O)[C@@H](N)Cc1c[nH]cn1)[C@@H](C)CC)[C@@H](C)O)C(=O)N[C@@H](C)C(=O)N[C@H](C(=O)N[C@@H](CCCCN)C(=O)N[C@@H](CCCCN)C(=O)N[C@@H](Cc1ccc(O)cc1)C(=O)N[C@@H](CC(C)C)C(=O)N[C@@H](C)C(=O)N[C@@H](C)C(=O)N[C@H](C(=O)N[C@@H](CC(C)C)C(=O)N[C@@H](CO[C@@H]1O[C@H](CO)[C@@H](O)[C@H](O)[C@H]1O)C(N)=O)C(C)C)C(C)C [CRA3010]
2 | 88.9 | 74 | 113 | 0.24 | 20.9 | 650 | 88 | 7.31 | 31.10 | – | – | CCC[C@H](NC(=O)[C@H](CCC(N)=O)NC(=O)[C@H](CCCCN)NC(=O)[C@H](CCCNC(=N)N)NC(=O)[C@H](Cc1ccc(O)cc1)NC(=O)[C@H](CCCNC(=N)N)NC(=O)[C@H](CO)NC(=O)[C@H](Cc1ccc(O)cc1)NC(=O)[C@H](CO)NC(=O)[C@H](CC(=O)O)NC(=O)[C@@H](NC(=O)[C@H](Cc1ccccc1)NC(=O)[C@H](CC(C)C)NC(=O)CNC(=O)[C@H](CC(=O)O)NC(=O)[C@@H](CO)NC(=O)[C@@H](N)Cc1c[nH]cn1)[C@@H](C)O)C(=O)N[C@@H](C)C(=O)N[C@H](C(=O)N[C@@H](CCCCN)C(=O)N[C@@H](CCCCN)C(=O)N[C@@H](Cc1ccc(O)cc1)C(=O)N[C@@H](CC(C)C)C(=O)N[C@@H](C)C(=O)N[C@@H](C)C(=O)N[C@H](C(=O)N[C@@H](CC(C)C)C(=O)N[C@@H](CO[C@@H]1O[C@H](CO)[C@@H](O)[C@H](O)[C@H]1O)C(N)=O)C(C)C)C(C)C [CRA3013]

Second part, the compound before the results:

Row | SMILES | EC50 (human PAC1 receptor) [nM] | Emax (human PAC1 receptor) [%] | Emax (human VPAC1 receptor) [%] | Receptor selectivity ratio VPAC1/PAC1 (human VPAC1 receptor) | EC50 (human VPAC1 receptor) [nM] | EC50 (human VPAC2 receptor) [nM] | Emax (human VPAC2 receptor) [%] | Receptor selectivity ratio VPAC2/PAC1 (human VPAC2 receptor) | Receptor selectivity ratio VPAC2/VPAC1 (human VPAC2 receptor) | Selectivity for PAC1 over VPAC1 (human PAC1 receptor; from cAMP EC50 values) [fold] | Selectivity for PAC1 over VPAC2 (human PAC1 receptor; from cAMP EC50 values) [fold]
3 | [2H]C([2H])([2H])C([2H])(C([2H])([2H])[2H])[C@]([2H])(NC(=O)[C@H](C)NC(=O)[C@H](C)NC(=O)[C@H](CC(C)C)NC(=O)[C@H](Cc1ccc(O)cc1)NC(=O)[C@H](CCCCN)NC(=O)[C@H](CCCCN)NC(=O)[C@@H](NC(=O)[C@H](C)NC(=O)[C@H](CC(C)C)NC(=O)[C@H](CCC(N)=O)NC(=O)[C@H](CCCCN)NC(=O)[C@H](CCCNC(=N)N)NC(=O)[C@H](Cc1ccc(O)cc1)NC(=O)[C@H](CCCNC(=N)N)NC(=O)[C@H](CO)NC(=O)[C@H](Cc1ccc(O)cc1)NC(=O)[C@H](CO)NC(=O)[C@H](CC(=O)O)NC(=O)[C@@H](NC(=O)[C@H](Cc1ccccc1)NC(=O)[C@@H](NC(=O)CNC(=O)[C@H](CC(=O)O)NC(=O)[C@H](CO)NC(=O)[C@@H](N)Cc1c[nH]cn1)[C@@H](C)CC)[C@@H](C)O)C(C)C)C(=O)N[C@@H](CC(C)C)C(=O)N[C@@H](CO[C@@H]1O[C@H](CO)[C@@H](O[C@@H]2O[C@H](CO)[C@@H](O)[C@H](O)[C@H]2O)[C@H](O)[C@H]1O)C(N)=O [Compound 2LS98Cell] | 0.84 | 92 | 93 | 0.62 | 0.52 | 55.6 | 91 | 66.19 | 106.92 | – | –
4 | CC[C@H](C)[C@H](NC(=O)CNC(=O)[C@H](CC(=O)O)NC(=O)[C@H](CO)NC(=O)[C@@H](N)Cc1c[nH]cn1)C(=O)N[C@@H](Cc1ccccc1)C(=O)N[C@H](C(=O)N[C@@H](CC(=O)O)C(=O)N[C@@H](CO)C(=O)N[C@@H](Cc1ccc(O)cc1)C(=O)N[C@@H](CO)C(=O)N[C@@H](CCCNC(=N)N)C(=O)N[C@@H](Cc1ccc(O)cc1)C(=O)N[C@@H](CCCNC(=N)N)C(=O)N[C@@H](CCCCN)C(=O)N[C@@H](CCC(N)=O)C(=O)N[C@@H](CC(C)C)C(=O)N[C@@H](C)C(=O)N[C@H](C(=O)N[C@@H](CCCCN)C(=O)N[C@@H](CCCCN)C(=O)N[C@@H](Cc1ccc(O)cc1)C(=O)N[C@@H](CC(C)C)C(=O)N[C@@H](C)C(=O)N[C@@H](C)C(=O)N[C@H](C(=O)N[C@@H](CC(C)C)C(=O)N[C@@H](CO[C@@H]1O[C@H](CO)[C@@H](O)[C@H](O)[C@H]1O)C(=O)N[C@@H](CO[C@@H]1O[C@H](CO)[C@@H](O)[C@H](O)[C@H]1O)C(N)=O)C(C)C)C(C)C)[C@@H](C)O [Compound 2LS140] | 2.23 | 102 | 108 | 1.37 | 3.06 | 156 | 106 | 69.96 | 50.98 | – | –
5 | CCC[C@H](NC(=O)[C@H](CCC(N)=O)NC(=O)[C@H](CCCCN)NC(=O)[C@H](CCCNC(=N)N)NC(=O)[C@H](Cc1ccc(O)cc1)NC(=O)[C@H](CCCNC(=N)N)NC(=O)[C@H](CO)NC(=O)[C@H](Cc1ccc(O)cc1)NC(=O)[C@H](CO)NC(=O)[C@H](CC(=O)O)NC(=O)[C@@H](NC(=O)[C@H](Cc1ccccc1)NC(=O)[C@@H](NC(=O)CNC(=O)[C@H](CC(=O)O)NC(=O)[C@@H](CO)NC(=O)[C@H](Cc1c[nH]cn1)NC(C)=O)[C@@H](C)CC)[C@@H](C)O)C(=O)N[C@@H](C)C(=O)N[C@H](C(=O)N[C@@H](CCCCN)C(=O)N[C@@H](CCCCN)C(=O)N[C@@H](Cc1ccc(O)cc1)C(=O)N[C@@H](CC(C)C)C(=O)N[C@@H](C)C(=O)N[C@@H](C)C(=O)N[C@H](C(=O)N[C@@H](CC(C)C)C(=O)N[C@@H](CO[C@@H]1O[C@H](CO)[C@@H](O[C@@H]2O[C@H](CO)[C@H](O)[C@H](O)[C@H]2O)[C@H](O)[C@H]1O)C(N)=O)C(C)C)C(C)C [Ac-CRA 3000-Lac] | – | 86 | 99 | – | – | – | 114 | – | – | – | –
6 | CCC[C@H](NC(=O)[C@H](CCC(N)=O)NC(=O)[C@H](CCCCN)NC(=O)[C@H](CCCNC(=N)N)NC(=O)[C@H](Cc1ccc(O)cc1)NC(=O)[C@H](CCCNC(=N)N)NC(=O)[C@H](CO)NC(=O)[C@H](Cc1ccc(O)cc1)NC(=O)[C@H](CO)NC(=O)[C@H](CC(=O)O)NC(=O)[C@@H](NC(=O)[C@H](Cc1ccccc1)NC(=O)[C@@H](NC(=O)CN(C)C(=O)[C@H](CC(=O)O)NC(=O)[C@@H](CO)NC(=O)[C@@H](N)Cc1c[nH]cn1)[C@@H](C)CC)[C@@H](C)O)C(=O)N[C@@H](C)C(=O)N[C@H](C(=O)N[C@@H](CCCCN)C(=O)N[C@@H](CCCCN)C(=O)N[C@@H](Cc1ccc(O)cc1)C(=O)N[C@@H](CC(C)C)C(=O)N[C@@H](C)C(=O)N[C@@H](C)C(=O)N[C@H](C(=O)N[C@@H](CC(C)C)C(=O)N[C@@H](CO[C@@H]1O[C@H](CO)[C@@H](O)[C@H](O)[C@H]1O)C(N)=O)C(C)C)C(C)C [CRA 3007] | 30 | 88 | 111 | 5.50 | 165 | 706 | 70 | 23.53 | 4.28 | ~5 | ~24
